Measurements reported in PMC7279038, “Antioxidant and Neuroprotective Effects Induced by Cannabidiol and Cannabigerol in Rat CTX-TNA2 Astrocytes and Isolated Cortexes” (International Journal of Molecular Sciences, 2020).

Tests used:
5-HT receptor (5-HT1A) = settings: cited from earlier work
[1] = target: T1, BChE (butyrylcholinesterase) (Equus caballus, UniProt P81908); assay: BChE inhibition, colorimetric cholinesterase assay; format: biochemical, horse; settings: mean ± S.D., n = 3
T1 construct: horse serum butyrylcholinesterase, EC 3.1.1.8, Sigma Aldrich S.r.L; purchased Sigma Aldrich S.r.L; host or cells: horse serum
T1 sequence (P81908 whole entry): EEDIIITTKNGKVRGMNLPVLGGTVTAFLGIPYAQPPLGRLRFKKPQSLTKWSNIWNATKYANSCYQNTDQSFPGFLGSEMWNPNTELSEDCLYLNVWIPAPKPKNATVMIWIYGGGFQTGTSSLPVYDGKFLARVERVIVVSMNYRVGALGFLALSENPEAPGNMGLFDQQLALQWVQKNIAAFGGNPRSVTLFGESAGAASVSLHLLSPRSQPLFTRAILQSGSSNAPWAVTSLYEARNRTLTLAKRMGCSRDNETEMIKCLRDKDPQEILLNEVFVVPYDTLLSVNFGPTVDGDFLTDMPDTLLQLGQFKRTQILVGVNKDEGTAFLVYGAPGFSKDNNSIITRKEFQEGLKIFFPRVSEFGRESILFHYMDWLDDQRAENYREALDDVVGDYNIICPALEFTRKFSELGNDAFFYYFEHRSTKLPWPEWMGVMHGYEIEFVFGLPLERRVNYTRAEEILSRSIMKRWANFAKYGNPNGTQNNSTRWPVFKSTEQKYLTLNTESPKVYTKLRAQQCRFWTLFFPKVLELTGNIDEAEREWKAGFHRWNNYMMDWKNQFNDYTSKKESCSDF

[2] = system: CTX-TNA2 rat astrocyte cell line; assay: MTT assay; format: cell-based; settings: for cell proliferation (MTT): basal conditions, 48 h, cannabidiol 1000 nM, cannabigerol 100 and 1000 nM; for protection from H2O2 cytotoxicity (MTT): cells challenged with 300 µM H2O2, CBD 1000 nM, CBG 1 nM
Procedure: The CTX-TNA2 rat astrocytes were purchased from the European Collection of Cell Cultures (ECACC), Sigma-Aldrich, Milan, Italy, and cultured as already indicated. Cells were grown in Dulbecco’s Modified Eagle Medium supplemented with 10% of FBS and penicillin–streptomycin (100 µgmL^−1) (all from EuroClone SpA Life-Sciences-Division, Milan, Italy) and maintained in a humified atmosphere of 5% CO2 at 37 °C. Cells were subcultivated at a ratio of 1.2 to 1.8 and the medium was changed every 3 days. CTX-TNA2 astrocytes were plated in 25 or 75 cm^2 flasks, according to experimental needing and cells between the eight and the 15 passage were used.
When indicated, the cells were treated with H2O2 300 µM for three hours and different concentrations of CBD (1–1000 nM) and CBG (1–1000 nM). The stock solutions were diluted in cell medium to the point that the concentration of DMSO in the samples was less than 0.0003%. Therefore, the addition of DMSO to the control samples was not necessary.
The 3 [4–dimethylthiazol-2yl]-2,5-diphenyl tetrazolium bromide (MTT) growth assay (Sigma-Aldrich S.r.l.) was used to assess cell proliferation as previously described. Briefly, The CTX-TNA2 cells were seeded into 96-well plate at 8 × 10^3 cells/well and treated as described above. After 24 and 48 h, a medium containing 0.5 mg/mL MTT was added to the cells, and the cells were incubated at 37 °C for 3 h. Following a further incubation of 30 min in DMSO, the absorbance at 570 nm was measured using a Multiscan GO microplate spectrophotometer (Thermo Fisher Scientific, Waltham, MA, USA).

Bax = assay: Western blotting analysis of Bax; format: cell-based, rat; settings: CTX-TNA2 challenged with H2O2, 24 h; 1000 nM CBD, 1 nM CBG
Procedure: […] The stock solutions were diluted in cell medium to the point that the concentration of DMSO in the samples was less than 0.0003%. Therefore, the addition of DMSO to the control samples was not necessary.
The western blowing analysis of Bax and Cyt C was carried out as previously reported. Specifically, CTX-TNA2 lysates (20 µg) were boiled fof 5 min in sample buffer, made of tris-HCl pH 6.8, glycerol, 2-mercaptoethanol, SDS and bromophenol blue. They were then electrophoresed and transferred to nitrocellulose membranes. […] Immunoreactive bands were identified using the ECL detection system (Euroclone, Pero, Milano, Italy) and analyzed by densitometry. Densitometric values were quantified by the CHEMIDOC XRS system and expressed as Integrated Optical Intensity using the QuantiOne 1-D analysis software (Bio-rad Laboratories, Richmond, CA, USA). […] Results are expressed as the mean ± SD.

[3] = ABTS scavenging ability test; settings: mean ± S.D., n = 3
Procedure: For the 2,2′-azino-bis(3-ethylbenzothiazoline) 6-sulfonic acid (ABTS) radical scavenging assay, ABTS+ was produced directly by reacting 7 mM ABTS solution with 2.45 mM potassium persulfate and allowing the mixture to stand for […] in the dark at room temperature. Prior to beginning the assay, ABTS solution was diluted with methanol to an absorbance of 0.700 ± 0.02 at 734 nm. Sample solution was added to ABTS solution (2 mL) and mixed. The sample absorbance was read at 734 nm after a 30 min incubation at room temperature. The ABTS radical scavenging activity was expressed as IC50 values.

hypothalamic 5-HT = system: hypothalamic 5-HT; set-up: method as in PMID 31941059; settings: cited from earlier work
rat hypothalamic neurons = system: rat hypothalamic neurons; set-up: method as in PMID 31941059; settings: ex vivo model, hydrogen peroxide; cited from earlier work

SMILES	effect on 5-HT1A activity (5-HT receptor (5-HT1A))	IC50 [1]	cell proliferation (MTT) [2]	protection from H2O2 cytotoxicity (MTT) [2]	Bax expression (Bax)	IC50 [3]	basal hypothalamic 5-HT levels (hypothalamic 5-HT)	neuroprotection (rat hypothalamic neurons)
C=C(C)[C@@H]1CCC(C)=C[C@H]1c1c(O)cc(CCCCC)cc1O [CBD, Cannabidiol]	activated	1.88 ± 0.11 mM	increase in cell proliferation	effective in protecting the cells from oxidative damage	keep Bax expression at values comparable to the control sample	1.04 ± 0.01 mM	stimulate basal hypothalamic 5-HT levels	
CCCCCc1cc(O)c(C/C=C(\C)CCC=C(C)C)c(O)c1 [CBG, cannabigerol]	moderately antagonized	1.48 ± 0.11 mM	increase in cell proliferation	effective at the lowest concentration (1 nM)	expression does not differ from the control sample	1.03 ± 0.01 mM		neuroprotection only at low concentrations
